Measured values published in PMC6270976, “Pharmacokinetic Study in Mice of Galphimine-A, an Anxiolytic Compound from Galphimia glauca” (Molecules, 2014).
Entries after “also recorded” stand apart in the source; their conditions may differ. Like-named read-outs stand apart in the source and are kept apart here.

How the values were obtained:
[1] = Plasma pharmacokinetics of G–A after a single oral dose in ICR mice (HPLC, PKSolver); format: in vivo; design: t1/2ka (absorption half time): unit not given here; settings: for AUC(0-inf) / Cmax / Tmax / AUC(0-t) / CL/F / MRT / Vd/F / k el: ICR, po, 200 mg/kg; for AUC(0-t): read-out: AUC0-1440 min (converted); for CL/F: read-out: CL/F (apparent clearance); for MRT: read-out: MRT (mean residence time) (converted); for Vd/F: read-out: V/F (apparent volume of distribution)
Description: (§1) Eighty-eight mice were randomly divided into 11 groups with eight individuals each. All animals were orally administered with 200 mg/kg of G–A dissolved in 5% β-cyclodextrin solution. Under ether-induced anesthesia, blood samples were obtained from the retroorbital sinus with heparinized cannula at different times (0, 5, 10, 15, 30, 60, 120, 240, 480, 720, and 1,440 min) after G–A administration. The volume of the blood samples was of 700 to 1000 microliters, which were collected in heparinized centrifuge microtubes, after the blood was centrifuged for 5 min at 1,720 × g.
(§2) Plasma samples were frozen at −70 °C, and lyophilized after. The obtained dry product was used to extract and measure the amount of G–A. After obtaining blood samples, all animals were perfused with isotonic saline solution (ISS) via cardiac puncture; the femoral vein was used to eliminate the perfusion liquid, until it appeared clear. Subsequently, the brain was removed. The brains were weighed fresh and frozen at −70 °C and then lyophilized. Once dry, the brains were weighed again to determine the volume of water contained in each brain. Dry tissue was ground in a mortar, and G–A was later extracted.
(§3) Dry pulverized samples (plasma and brain) were extracted with methanol (HPLC grade, Merck). The extracts were filtered with a 0.45 μm, 13 mm Teflon membrane (Millex®-LCR), and 20 μL of filtrate were injected into the HPLC equipment. Measurements were performed in a Waters 2695 HPLC, with diode array detector (Waters 2996) and the Empower Pro 1.0 software. A Chromolith Performance® RP-18e 100 × 4.6 mm (Merck KGaA Darmstadt, Germany) was used. The mobile phase consisted of a mixture of acetonitrile:water (55:45, 1 mL/min). G–A concentration was obtained by comparison with a pre-built calibration curve at λ = 220 nm.
(§4) To evaluate the suitability of the assay for pharmacokinetic studies, 200 mg/kg of G–A was orally administered to mice. Eight animals were used in each group different times (0, 5, 10, 15, 30, 60, 120, 240, 480, 720, and 1440 min). Pharmacokinetic calculations were performed using the observed data. All data were subsequently processed using PKSolver add-in program for Microsoft Excel written in Visual Basic for Applications. […]
(§5) The pharmacokinetic model selection either one or two-comparment, were used both the Akaike information criterion (AIC) and Schwarz criterion (SC). Using the criteria, one may select the model with which to reach a lower value of AIC or SC, which means that the chosen model is more parsimonious (less parameters required) and best fits the data (low error prediction).

[2] = Brain tissue pharmacokinetics of G–A after a single oral dose in ICR mice (HPLC, PKSolver); format: in vivo
Description: as §1, §2, §3, §4, §5

[3] = Stability of G–A in mouse plasma under handling conditions; format: in vitro ADME; settings: for Observed Concentration ± S.D.: n = 6
Description: The stability of G–A in mice plasma and brain was assessed by analyzing replicates (n = 6) of QC samples at concentrations of 0.8, 4.0 and 10 μg/mL for mice plasma and brain. The investigation covered expected conditions during all of the sample storage and process periods, which included the stability data from freeze/thaw, bench-top, autosampler and long–term stability test. For all stability studies, freshly prepared and stability testing QC samples were evaluated by using freshly prepared standard curves for the measurement. The concentrations obtained from all stability studies were compared with the freshly prepared QC samples, and the percentage concentration deviation was calculated. The analytes were considered stable in mouse plasma and brain when the concentration difference between the freshly prepared samples and the stability samples was less than 15%.

[4] = cited from earlier work
[5] = mouse, plasma, one-compartment model, oral 200 mg/kg
[6] = mouse, plasma, plasma, one-compartment model, oral 200 mg/kg
[7] = mouse, plasma, plasma, two-compartment model, oral 200 mg/kg
[8] = mouse, plasma, two-compartment model, oral 200 mg/kg
[9] = plasma, one-compartment model, oral 200 mg/kg
[10] = plasma, two-compartment model, oral 200 mg/kg
[11] = brain tissue, oral 200 mg/kg, n = 8
[12] = mouse, brain tissue, oral 200 mg/kg, n = 8
[13] = plasma, 3 Freeze/thaw cycles (−70 °C), nominal 0.80 μg/mL
[14] = plasma, 3 Freeze/thaw cycles (−70 °C), nominal 4.00 μg/mL
[15] = plasma, 3 Freeze/thaw cycles (−70 °C), nominal 10.0 μg/mL
[16] = plasma, Autosampler stability (4 °C; 8 h), nominal 0.80 μg/mL
[17] = plasma, Autosampler stability (4 °C; 8 h), nominal 4.00 μg/mL
[18] = plasma, Long–term stability (−70 °C; 1 month), nominal 0.80 μg/mL
[19] = plasma, Long–term stability (−70 °C; 1 month), nominal 4.00 μg/mL
[20] = plasma, Long–term stability (−70 °C; 1 month), nominal 10.0 μg/mL

G–A Concentration Plasma ([1]; 5 min after single oral 200 mg/kg, mean ± S.E.M., n = 8, 200 mg/kg): 2.47 ± 0.43 µg/mL
AUC(0-inf) [1, 5]: 36200 ng·h/mL
Cmax [1, 5]: 3330 ng/mL
Tmax [1, 5]: 0.436 h
AUC(0-t) [1, 6]: 32500 ng·h/mL
CL/F [1, 6]: 92 mL/min/kg
MRT [1, 6]: 10.5 h
Vd/F [1, 6]: 57.6 L/kg
k el ([1]; mouse, plasma, plasma, one-compartment model, oral 200 mg/kg, read-out: k10 (apparent first-order elimination rate constant) (converted)): 2.67e-05 s⁻¹
k el ([1]; mouse, plasma, plasma, one-compartment model, oral 200 mg/kg, read-out: k10 (elimination rate constant) (converted)): 2.67e-05 s⁻¹
AUC(0-t) [1, 7]: 30400 ng·h/mL
CL/F [1, 7]: 98 mL/min/kg
MRT [1, 7]: 10.3 h
Vd/F [1, 7]: 55.5 L/kg
k el ([1]; mouse, plasma, plasma, two-compartment model, oral 200 mg/kg, read-out: k10 (apparent first-order elimination rate constant) (converted)): 2.83e-05 s⁻¹
k el ([1]; mouse, plasma, plasma, two-compartment model, oral 200 mg/kg, read-out: k10 (elimination rate constant) (converted)): 2.83e-05 s⁻¹
AUC(0-inf) [1, 8]: 33800 ng·h/mL
Cmax [1, 8]: 3420 ng/mL
Tmax [1, 8]: 0.456 h
concentration at 5 min ([1]; mouse, plasma, 5 min after single oral 200 mg/kg, mean ± S.E.M., n = 8): 2470 ng/mL
concentration at 10 min ([1]; mouse, plasma, 10 min after single oral 200 mg/kg, mean ± S.E.M., n = 8): 2570 ± 520 ng/mL
concentration at 15 min ([1]; mouse, plasma, 15 min after single oral 200 mg/kg, mean ± S.E.M., n = 8): 2790 ± 790 ng/mL
concentration at 30 min ([1]; mouse, plasma, 30 min after single oral 200 mg/kg, mean ± S.E.M., n = 8): 3700 ± 700 ng/mL
concentration at 60 min ([1]; mouse, plasma, 60 min after single oral 200 mg/kg, mean ± S.E.M., n = 8): 3440 ± 350 ng/mL
concentration at 120 min ([1]; mouse, plasma, 120 min after single oral 200 mg/kg, mean ± S.E.M., n = 8): 2950 ± 430 ng/mL
concentration at 240 min ([1]; mouse, plasma, 240 min after single oral 200 mg/kg, mean ± S.E.M., n = 8): 2330 ± 420 ng/mL
concentration at 480 min ([1]; mouse, plasma, 480 min after single oral 200 mg/kg, mean ± S.E.M., n = 8): 1440 ± 370 ng/mL
concentration at 720 min ([1]; mouse, plasma, 720 min after single oral 200 mg/kg, mean ± S.E.M., n = 8): 960 ± 210 ng/mL
concentration at 1440 min ([1]; mouse, plasma, 1440 min after single oral 200 mg/kg, mean ± S.E.M., n = 8): 310 ± 20 ng/mL
Plasma area under the G–A concentration time curve ([1]; one-compartment model, oral 200 mg/kg): 2,170 μg·min·mL^−1
Time to detection in plasma after oral administration ([1]; oral 200 mg/kg): ≤ 5 min
A (G–A plasma concentration in central compartment) [1, 9]: 3.50 µg/mL
ka (apparent first-order absorption rate constant) [1, 9]: 0.182 min⁻¹
t1/2ka (absorption half time) [1, 9]: 3.79
A (G–A plasma concentration in central compartment) [1, 10]: 1.83 µg/mL
B (G–A plasma concentration in peripheral compartment) [1, 10]: 1.82 µg/mL
k12 (transfer rate constant central to peripheral compartment) [1, 10]: 0.00017 min⁻¹
k21 (transfer rate constant peripheral to central compartment) [1, 10]: 0.00195 min⁻¹
ka (apparent first-order absorption rate constant) [1, 10]: 0.164 min⁻¹
t1/2ka (absorption half time) [1, 10]: 4.22
α [1, 10]: 0.0025 min⁻¹
β [1, 10]: 0.0014 min⁻¹
Plasma area under the G–A concentration time curve ([1]; two-compartment model, oral 200 mg/kg): 2,030 μg·min·mL^−1
G–A Concentration Brain ([2]; 1440 min (24 h) after single oral 200 mg/kg, mean ± S.E.M., n = 8, 200 mg/kg): 0.32 ± 0.14 µg/mL
Tmax ([2]; ICR, mouse, brain, po, 200 mg/kg, brain tissue, oral 200 mg/kg, n = 8, read-out: Tmax (converted)): 1.36 h
A [2, 11]: 2.98 µg/mL
V/F [2, 11]: 68.16 (mg/kg)/(μg/mL)
k10 [2, 11]: 0.0008 min⁻¹
ka [2, 11]: 0.051 min⁻¹
Tmax ([2]; brain tissue, oral 200 mg/kg, n = 8, 200 mg/kg): 1.36 h
AUC(0-inf) [2, 12]: 58700 ng·h/mL
CL/F [2, 12]: 57 mL/min/kg
Cmax [2, 12]: 2740 ng/mL
MRT [2, 12]: 20.3 h
AUC(0-t) ([2]; mouse, brain tissue, oral 200 mg/kg, n = 8, read-out: AUC0-1440 min (converted)): 31900 ng·h/mL
concentration at 5 min ([2]; mouse, brain, 5 min after single oral 200 mg/kg, mean ± S.E.M., n = 8): 0 ng/mL
concentration at 10 min ([2]; mouse, brain, 10 min after single oral 200 mg/kg, mean ± S.E.M., n = 8): 880 ± 330 ng/mL
concentration at 15 min ([2]; mouse, brain, 15 min after single oral 200 mg/kg, mean ± S.E.M., n = 8): 1480 ± 580 ng/mL
concentration at 30 min ([2]; mouse, brain, 30 min after single oral 200 mg/kg, mean ± S.E.M., n = 8): 3440 ± 500 ng/mL
concentration at 60 min ([2]; mouse, brain, 60 min after single oral 200 mg/kg, mean ± S.E.M., n = 8): 3010 ± 590 ng/mL
concentration at 120 min ([2]; mouse, brain, 120 min after single oral 200 mg/kg, mean ± S.E.M., n = 8): 2500 ± 580 ng/mL
concentration at 240 min ([2]; mouse, brain, 240 min after single oral 200 mg/kg, mean ± S.E.M., n = 8): 2180 ± 480 ng/mL
concentration at 480 min ([2]; mouse, brain, 480 min after single oral 200 mg/kg, mean ± S.E.M., n = 8): 1780 ± 370 ng/mL
concentration at 720 min ([2]; mouse, brain, 720 min after single oral 200 mg/kg, mean ± S.E.M., n = 8): 550 ± 180 ng/mL
concentration at 1440 min ([2]; mouse, brain, 1440 min (24 h) after single oral 200 mg/kg, mean ± S.E.M., n = 8): 320 ng/mL
Time analyzable in the autosampler tray with acceptable precision and accuracy ([3]; plasma samples, 4 °C): over 8 h
Long-term storage stability (time stable) ([3]; plasma samples, −70 °C): over 1 month
Accuracy Bias [3, 13]: −1.00%
Observed Concentration ± S.D. [3, 13]: 0.79 ± 0.08 µg/mL
Accuracy Bias [3, 14]: 0.25%
Observed Concentration ± S.D. [3, 14]: 4.01 ± 0.14 µg/mL
Accuracy Bias [3, 15]: −0.70%
Observed Concentration ± S.D. [3, 15]: 9.93 ± 0.67 µg/mL
Accuracy Bias [3, 16]: 3.75%
Observed Concentration ± S.D. [3, 16]: 0.83 ± 0.05 µg/mL
Accuracy Bias [3, 17]: −1.75%
Observed Concentration ± S.D. [3, 17]: 3.93 ± 0.43 µg/mL
Observed Concentration ± S.D. ([3]; plasma, Autosampler stability (4 °C; 8 h), nominal 10.0 μg/mL): 10.10 ± 0.85 µg/mL
Accuracy Bias [3, 18]: −3.00%
Observed Concentration ± S.D. [3, 18]: 0.77 ± 0.06 µg/mL
Accuracy Bias [3, 19]: 6.50%
Observed Concentration ± S.D. [3, 19]: 4.26 ± 0.31 µg/mL
Accuracy Bias [3, 20]: −5.70%
Observed Concentration ± S.D. [3, 20]: 9.43 ± 0.83 µg/mL
Freeze/thaw stability ([3]; plasma, three cycles, stored at −70 °C and thawed to room temperature): stable
SMILES: COC(=O)[C@@]12CC[C@]3(C)C([C@H](O)[C@H](O)[C@@]4([C@@H](C)O)COC(=O)C=C[C@H]43)[C@@]1(C)CC[C@@]1(C)CC=C(C)C[C@]12O (stereo partly drawn) [G–A, galphimine-A]
Anxiolytic effect ([4]; 15 mg/kg dose administered intraperitoneally): anxiolytic effects
Anxiolytic activity ([4]; among the galphimines): most active; also recorded: highest anxiolytic activity
